Measurements reported in ChEMBL document CHEMBL1146949, “Isoquinoline derivatives as potential acetylcholinesterase inhibitors” (Bioorg Med Chem Lett, 2006).

Tests used:
[1] = target: T1, Acetylcholinesterase (Homo sapiens, UniProt P22303); experiment: Inhibition of AChE activity
[2] = target: T1, Acetylcholinesterase; experiment: Inhibition of AChE at 0.03 mM
[3] = target: T1, Acetylcholinesterase; experiment: Inhibition of AChE at 0.3 mM

T1 sequence (P22303 whole entry): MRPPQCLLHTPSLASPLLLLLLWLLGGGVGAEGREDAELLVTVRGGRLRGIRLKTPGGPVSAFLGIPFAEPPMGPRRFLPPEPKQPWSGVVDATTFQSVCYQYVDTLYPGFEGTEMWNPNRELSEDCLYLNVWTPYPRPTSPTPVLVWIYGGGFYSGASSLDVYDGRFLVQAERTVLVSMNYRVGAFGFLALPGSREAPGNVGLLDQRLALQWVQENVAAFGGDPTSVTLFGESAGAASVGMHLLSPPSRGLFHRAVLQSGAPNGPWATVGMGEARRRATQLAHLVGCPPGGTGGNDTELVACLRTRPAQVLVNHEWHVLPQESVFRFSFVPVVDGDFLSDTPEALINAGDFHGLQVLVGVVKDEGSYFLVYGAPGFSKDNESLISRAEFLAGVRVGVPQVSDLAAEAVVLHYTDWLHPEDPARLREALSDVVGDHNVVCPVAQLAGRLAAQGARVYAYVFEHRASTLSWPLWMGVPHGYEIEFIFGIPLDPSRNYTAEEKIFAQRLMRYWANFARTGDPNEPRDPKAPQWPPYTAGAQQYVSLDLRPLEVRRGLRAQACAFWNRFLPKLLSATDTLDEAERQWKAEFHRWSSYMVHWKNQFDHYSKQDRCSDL

Row | SMILES | IC50 [1] [µM] | inhibition ([1]; concentration not given here) [%] | inhibition [2] [%] | inhibition [3] [%]
1 | COc1ccc(Cc2nccc3cc(OC)c(OC)cc23)cc1OC [PAPAVERINE] | 24.3 | – | – | –
2 | COc1cc2ccnc(C(O)c3ccccc3OC)c2cc1OC (stereo unspecified) | 6.94 | 0 | – | –
3 | COc1ccc(C(O)c2nccc3cc(OC)c(OC)cc23)cc1OC (stereo unspecified) | 10.7 | – | – | –
4 | COC(=O)N1CCc2c(OC)c(OC)c(OC)c3c2C1Cc1cc(OC)c(OC)cc1-3 (stereo unspecified) | – | – | 7.3 | 15.9
